Structures can show the parent of a compound that is named as a salt.
Point of comparison: COc1cc(-c2nc3ccccc3o2)ccc1-c1ccccn1 (as salt: hydrochloride) [Example 54, 2-(3-Methoxy-4-pyridin-2-ylphenyl)-1,3-benzoxazole hydrochloride salt], melting point 215 °C. Against it:
- N#CCc1ccc(-c2nc3ccccc3o2)cc1[N+](=O)[O-] [Example 6, [4-(1,3-Benzoxazol-2-yl)-2-nitrophenyl]acetonitrile] — lower, 203 °C
- N#CCc1ccc(-c2nc3ccccc3o2)cc1-c1cccc(C#N)c1 [Example 4, 5′-(1,3-Benzoxazol-2-yl)-2′-(cyanomethyl)-1,1′-biphenyl-3-carbonitrile] — lower, 175 to 176 °C
- N#CCc1ccc(-c2nc3ccccc3o2)cc1Br [Example 1, [4-(1,3-Benzoxazol-2-yl)-2-bromnophenyl]acetonitrile] — lower, 190 to 191 °C
- N#CCc1ccc(-c2nc3ccccc3o2)cc1N [Example 7, [2-Amino-4-(1,3-benzoxazol-2-yl)phenyl]acetonitrile] — lower, 198 to 199 °C
